{
  "source": "patent US11654136B2",
  "about": "“Phosphoinositide 3-kinase inhibitor with a zinc binding moiety” (Curis, Inc., priority 2011, dated 2023)",
  "key": {"[1]": {"test_system": "HDACs (HeLa cell nuclear extracts)", "assay": "HDAC activity assay (Biomol Color de Lys)", "format": "biochemical", "method": "HDAC inhibitory activity was assessed using the Biomol Color de Lys system (AK-500, Biomol, Plymouth Meeting, Pa.). Briefly, HeLa cell nuclear extracts were used as a source of HDACs. Different concentrations of test compounds were serially diluted in dimethylsulfoxide (DMSO) and added to HeLa cell nuclear extracts in the presence of a colorimetric artificial substrate. Final assay condition contained 50 mM Tris/C1, pH 8.0, 137 mM NaCl, 2.7 mM KCl and 1 mM MgCl2. Reactions were carried in room temperature (25° C.) for 1 hour before addition of developer for termination. Relative enzyme activity was measured in the WALLAC Victor II 1420 microplate reader as fluorescence intensity (excitation: 350-380 nm; emission: 440-460 nm). Data were analyzed using GraphPad Prism (v4.0a) with a sigmoidal dose response curve fitting for IC50 calculation."}, "[2]": {"assay": "Pharmacokinetics in nude mice bearing H2122 tumors", "format": "in vivo", "conditions": "PO 50 mg/kg; for Cmax / bioavailability: mouse", "method": "Nude mice bearing H2122 (human non-small cell lung cancer cell line) xenograft tumors were used for pharmacokinetics studies. […] At various time points following compound administration, three mice per time point were euthanized with CO2, and blood and tumor tissues were collected. Blood was collected into tubes containing sodium heparin. The plasma was separated via centrifugation. Plasma and tissues were stored at −80° C. for later analysis. A PE Sciex API-3000 LC-MS/MS system (Applied Biosystems, Inc., Foster City, Calif.) was used to analyze compound concentrations in plasma and tumor tissues."}, "[3]": {"assay": "Pharmacokinetics in SCID mice bearing Daudi tumors", "format": "in vivo", "conditions": "for Area under the Curve / Half-life / Cmax / Tmax: oral gavage; for Area under the Curve / Cmax / Tmax: dose not stated; for Half-life: dose of the table not stated (25, 50 or 100 mg/kg); for Cmax / Tmax: female, mouse", "method": "Daudi (non-Hodgkin's lymphoma cell line) cells were implanted into female Scid (severe […] immune-deficient) mice.\nAt various time points following compound administration, three mice per time point were euthanized with CO2, and blood and tumor tissues were collected. Blood was collected into tubes containing sodium heparin. The plasma was separated via centrifugation. Plasma and tissues were stored at −80° C. for later analysis. A PE Sciex API-3000 LC-MS/MS system (Applied Biosystems, Inc., Foster City, Calif.) was used to analyze compound concentrations in plasma."}, "[4]": {"test_system": "PI3K-AKT-mTOR pathway, RAF-MEK-ERK pathways, RTK protein levels, p53 and p21", "assay": "Pharmacodynamics, Western blots of Daudi tumor tissue extracts", "format": "in vivo, Scid mice", "conditions": "single dose 25, 50 and 100 mg/kg; Daudi tumors", "method": "Protein was extracted from tumor tissues using a Tissuelyser (Qiagen, Valencia, Calif.) according to the manufacturer's instructions. 30 ug of protein was routinely used for WB analysis as described above. Cell lysates were resolved on NuPAGE Novex 4-12% Bis-Tris gels (Invitrogen) and transferred to nitrocellulose membranes (Bio-Rad Laboratories, Hercules, Calif.). The blots were probed with various primary antibodies overnight at 4° C. GAPDH (glyceraldehyde 3-phosphate dehydrogenase, 1:30,000, Abcam, Cambridge, Mass.) was used as an internal control for each assay. Membranes were then incubated with infrared labeled secondary antibodies (1:10000) conjugated-IR Dye-800 (Rockland Immunochemicals, Inc. Gilbertsville, Pa.) or conjugated-Alexa 680 (Invitrogen). Membranes were imaged with the Odyssey Infrared Imaging System (Li-Cor Biotechnology, Lincoln, Nebr.)."}, "[5]": {"test_system": "H2122 (human NSCLC cell line) xenograft tumors", "assay": "H2122 xenograft tumor model", "format": "in vivo, nude mice", "method": "(§1) SU-DHL4 (diffuse large B-cell lymphoma cell line), H2122 (human NSCLC cell line), Daudi (non-Hodgkin's lymphoma cell line), and OPM2 (multiple myeloma tumor cell line) cells were implanted into either nude or Scid (severe […] immune-deficient) mice. […]. […] The control groups were treated with vehicle using the same dosing schedule as the corresponding active group.\n(§2) In another study, the Daudi tumor group was dosed at 50 mg/Kg twice a day for five days per week. […] The SU-DHL4 tumor group was dosed at 100 mg/Kg orally or 50 mg/Kg intravenously.\n(§3) Tumors were measured during the study period with an electronic caliper, and body weights were measured twice a week. The following formula was used to calculate the tumor volume: […] Percentage of tumor volume change was used to describe compound activity over the treatment period."}, "[6]": {"assay": "Daudi xenograft tumor model", "format": "in vivo", "conditions": "Scid, mouse, in vivo; oral; Daudi model; read-out: maximum tolerated dose (MTD)", "method": "as §1, §2, §3"}, "[7]": {"test_system": "Daudi (non-Hodgkin's lymphoma cell line) xenograft tumors", "assay": "Daudi xenograft tumor model", "format": "in vivo", "method": "as §1, §2, §3"}, "[8]": {"test_system": "PI3K pathway signaling (AKT, 4EBP-1, p70S6) in H460 cells", "assay": "Western blot / in-cell-western of PI3K pathway signaling in H460 cells", "format": "cell-based", "method": "Cell extracts were prepared in the presence of SDS and 2-mercaptoethanol and resolved in polyacrylamide gels. Proteins were transferred to nitrocellulose filter and blotting was done using standard procedures with blocking solutions (Li-Cor Bioscience) containing the indicated primary antibody. Primary antibodies against p-EGFR, EGFR, p-HER2, HER2, p-HER3, HER3, p-MET, MET, p-bRaf, p-cRaf, pMEK, MEK, p-ERK, ERK and tubulin were purchased from Cell Signaling Technology. Secondary antibody conjugated with IRdye 680, 800CW were used and the signal was detected with Li-Cor Odyssey Imager.\nImmunocytochemistry was performed on cells grown in monolayer culture that were treated as indicated in the figure legends and then fixed in 4% (w/v) paraformaldehyde. After washing in 1×PBS, immunostaining was performed in Li-Cor blocking solution containing the indicated primary antibodies and IRDye 680- or 800CW-conjugated secondary antibodies. For in-cell-western, a Li-Cor Odyssey infrared imager was used for detection and quantification of results.\nCells were treated with DMSO alone (vehicle control) or containing test compounds for 1 h before Western blot or in-cell-western was performed."}, "[9]": {"conditions": "Plasma, H2122 tumor-bearing nude mice"}, "[10]": {"conditions": "Plasma, Daudi tumor-bearing Scid mice"}},
  "data": [
    {"smiles": "COc1ccc(-c2nc(N3CCOCC3)c3sc(CN(C)c4ncc(C(=O)NO)cn4)cc3n2)cn1", "note": "[Compound 1, N-hydroxy-2-(((2-(6-methoxypyridin-3-yl)-4-morpholinothieno[3,2-d]pyrimidin-6-yl)methyl)(methyl)amino)pyrimidine-5-carboxamide]", "values": [
      {"measurement": "IC50", "setting": "[1]", "value": "< 100", "unit": "nM"},
      {"measurement": "Distribution between plasma and tumor tissue", "setting": "[2]", "value": "preferentially accumulates in tumor tissue"},
      {"measurement": "Area under the Curve", "setting": "[2]; [9]", "value": 478, "unit": "ng/mL * hr"},
      {"measurement": "Half-life", "setting": "[2]; [9]", "value": 5.9, "unit": "h"},
      {"measurement": "Area under the Curve", "setting": "[2]; Tumor", "value": 2126, "unit": "ng/mL * hr"},
      {"measurement": "Half-life", "setting": "[2]; Tumor", "value": 10.1, "unit": "h"},
      {"measurement": "Cmax", "setting": "[2]; Tumor", "value": 154, "unit": "ng/mL"},
      {"measurement": "bioavailability", "setting": "[2]; Tumor", "value": 14.8, "unit": "%"},
      {"measurement": "Cmax", "setting": "[2]; [9]", "value": 186, "unit": "ng/mL"},
      {"measurement": "bioavailability", "setting": "[2]; [9]", "value": 7.8, "unit": "%"},
      {"measurement": "Area under the Curve", "setting": "[3]; [10]", "value": 1899.26, "unit": "ng/mL * hr"},
      {"measurement": "Half-life", "setting": "[3]; [10]", "value": 7.73, "unit": "h"},
      {"measurement": "Area under the Curve", "setting": "[3]; Tumor", "value": 3973.56, "unit": "ng/mL * hr"},
      {"measurement": "Half-life", "setting": "[3]; Tumor", "value": 12.62, "unit": "h"},
      {"measurement": "Cmax", "setting": "[3]; Tumor", "value": 1040, "unit": "ng/mL"},
      {"measurement": "Tmax", "setting": "[3]; Tumor", "value": 0.1, "unit": "h"},
      {"measurement": "Cmax", "setting": "[3]; [10]", "value": 2290, "unit": "ng/mL"},
      {"measurement": "Tmax", "setting": "[3]; [10]", "value": 0.24, "unit": "h"},
      {"measurement": "Distribution between plasma and tumor tissue", "setting": "[3]; oral 25, 50 and 100 mg/kg", "value": "preferentially accumulates in tumor tissue in a dose dependent manner"},
      {"measurement": "Plasma exposure versus dose", "setting": "[3]; oral 25, 50 and 100 mg/kg, Daudi tumor-bearing Scid mice", "value": "dose-dependent exposure"},
      {"measurement": "Pharmacodynamic markers in tumor tissue (Western blots)", "setting": "[4]", "value": "inhibits the PI3K-AKT-mTOR pathway, suppresses the RAF-MEK-ERK pathways, downregulates RTK protein levels and up-regulates tumor suppressor p53 and p21 levels"},
      {"measurement": "Body weight", "setting": "[5]; oral 75 mg/Kg twice a day, H2122 tumor-bearing nude mice", "value": "body weight loss"},
      {"measurement": "Tumor growth", "setting": "[5]; oral 75 mg/kg twice a day, then 50 mg/Kg twice a day from Day-11, five days per week", "value": "efficacious"},
      {"measurement": "MTD", "setting": "[6]", "value": 100, "unit": "mg/kg"},
      {"measurement": "Tumor growth", "setting": "[7]; oral 50 mg/Kg twice a day, five days per week", "value": "efficacious"},
      {"measurement": "Antitumor activity compared with GDC-0941, vorinostat and their combination", "setting": "[7]; oral 100 mg/Kg, each treatment at its MTD", "value": "more efficacious than vorinostat, GDC-0941, or a combination of both"},
      {"measurement": "Tumor growth versus dose", "setting": "[7]; oral 25, 50 or 100 mg/Kg five day per week", "value": "inhibited Daudi tumor growth in a dose-dependent manner"},
      {"measurement": "Phosphorylation of Akt", "setting": "[8]", "value": "persistently and potently inhibits phosphorylation of Akt in a dose-dependent manner"},
      {"measurement": "Activation of AKT, 4EBP-1 and p70S6", "setting": "[8]; 1 μmon", "value": "inhibits the activation of AKT and the downstream signaling proteins 4EBP-1 and p70S6"}
    ]}
  ]
}
